According to US12653181B2, “Control of ripening and senescence in pre-harvest and post-harvest plants and plant materials by manipulating alternative oxidase activity” (Washington State University, priority 2012, dated 2026):
“Also recorded” adds a separate entry of the source.

Legend:
[1] = system: whole pears with or without 1-MCP pre-treatment; experiment: Internal ethylene of pears after ambient fogging with glyoxylic acid (gas extraction, GC/MS); type: in vivo, pear; details: both 1-MCP pre-treated and non-1-MCP pre-treated fruit
Description: As an additional confirmation of glyoxylic acid-mediated ripening of 1-MCP pre-treated pears, the internal ethylene of the fruit was also measured. First, the whole fruit with or without 1-MCP pre-treatment were treated with 0.5% ([…]) or 1% (0.135 M) glyoxylic acid using ambient fogging. Thereafter, one quarter of four separate pears from each treatment was sliced into four pieces and placed into a gas extraction chamber. A vacuum was created using an aspirator. For each experiment, 0.5 ml of extracted ethylene gas was injected into the GC/MS in three replicates. Measurements of ethylene in ppm were calculated using a previously established standard curve.

[2] = system: Wild type tomatoes (var. 'Ailsa Craig'); experiment: Ripening (visual pigmentation) of wild type mature green tomato fruit; type: in vivo; details: for ripening response (pigmentation green to red) versus deionized water control: treated or injected with 1 mL of 2% solution, 7 days
[3] = system: 1-MCP pre-treated fruit (whole pear); experiment: Firmness and Brix of 1-MCP pre-treated whole pears after ambient fogging with glyoxylic acid; type: in vivo; details: 1% (0.135 M) ambient fogging
Description: (§1) In order to ripen whole pear fruit pretreated with 1-MCP, the fruits were treated by immersion in 0 mM, 0.1 mM, 0.25 mM, 0.5 mM glyoxylic acid. In other experiments, the fruits were treated by ambient fogging of fruit with 1 liter of solution of 1% (0.135 M), 2% (0.270 M) and 3% (0.405 M) glyoxylic acid solution (determined with 74 as the molecular weight of glyoxylic acid). The ambient fogging was carried out in a 192,000 cm^3 volume chamber using an ultrasonic humidifier. Various indicators of ripening were assayed thereafter.
Next, 1-MCP pre-treated fruit were treated with glyoxylic acid using ambient fogging at 0% or 1% (0.135 M) glyoxylic acid. In this experiment, the fruit firmness was measured at two time points—immediately after the fogging treatment and again 8 days later using a penetrometer. […] The fruit were also assessed for ripeness by assaying the Brix values, which are indicative of total soluble solids and also serve as an industry standard for fruit ripening. […] All these experiments have been repeated multiple times and have been consistent with the above data.

[4] = system: Mango; experiment: Mango fruit flesh firmness after atomized GLA exposure (penetrometer); type: in vivo; details: 3% GLA, 16 hours, readings confounded by variable rinds
Description: (§2) Fruits: Avocado and Mango fruits were purchased from Pullman Walmart and half were immediately placed in separate chambers for administration of glyoxylic acid, half were left on the bench top at 20° C.
(§3) GLA treatment: Humidification via sonication was accomplished by administering 1 liter of 3% (m/V) glyoxylic acid (GLA) solution in deionized water into the reservoir of a Crane humidifier model EE-5301. Atomized GLA solution was directed via surgical tubing from the humidifier into a custom acrylic chamber measuring approximately 40×60×60 cm containing 12 pears per treatment for 16 hours. Fruits were elevated from the chamber floor on metal baking racks to allow for exposure to GLA on all faces. One (1) 1 cm diameter port allowed for gas exchange between the atmosphere and chamber. A thick cloud of atomized GLA solution was visible in each chamber for the duration of each experimental exposure time. All experiments were conducted at 20° C.
(§4) Firmness measurements: Fruit firmness was measured via FTA penetrometer (GUSS Manufacturing, Norfolk, VA) at three equidistant locations around the middle of each fruit. Therefore, one biological replicate yielded three technical replicates. For each penetrometer measurement, approximately 2 cm^2 of fruit epidermal tissue was removed with a fruit peeler. Firmness measurements were taken at the locations on the fruit where epidermal tissue was removed. […]

[5] = system: Bartlett pears; experiment: Ethylene and CO2 evolution of 1-MCP treated Bartlett pears in air-tight chambers (GC-FID, gas analyzer); type: in vivo, Pyrus communis
Description: Thereafter, each experimental group of fruit was placed in a separate air-tight chamber connected to a gas chromatography (GC) instrument configured to draw samples every 8 hours over the course of 5 days, to measure ethylene via a flame ionizing detector (FID), and to measure CO2 via a gas analyzer. The experiment was performed with 4 pears per chamber in 3 replicates per experimental group. Monitoring was performed to detect minor variation in air flow rates in all experimental chambers used and detected variations were accounted for in subsequent calculations.

[6] = system: sliced pear fruit; experiment: Ethylene evolved from sliced 1-MCP fruit treated with glyoxylic acid in sealed modified atmosphere bag; type: in vivo
Description: Next, a modified protocol was followed to expose fruit slices derived from 1-MCP pre-treated fruit to solutions of glyoxylic acid. Glyoxylic acid solutions ranging from 0.005% (0.675 mM), 0.150% (20.25 mM), 0.5% ([…]), 1% (0.135 M), 2% (0.270 M), 2.5% (0.338 M) and 3% (0.405 M) were prepared either alone or in conjunction with the Nature seal solution, which contains antioxidants that prevent fruit oxidation. 1-MCP fruit was sliced and treated with the 0.005%, 0.150%, 0.5% or 2.5% glyoxylic acid solutions and placed in a modified, sealed atmosphere bag. The amount of evolved ethylene was measured directly from the sealed bag of fruit. […] Finally, the 1-MCP fruit that were sliced and treated with 1%, 2% and 3% glyoxylic acid were evaluated in consumer preference trials in 2014 and 2015.

[7] = system: rin tomato fruit; experiment: Ripening (visual pigmentation) of rin mutant tomato fruit; type: in vivo; details: for ripening response (change in pigmentation) of rin tomato fruit: 2% GLA, observed over 14 days; for pigment response in untreated rin fruit on the same branches as treated fruit: GLA injection to a single fruit
[8] = system: fruit slices of 1-MCP pre-treated pears; experiment: Ethylene from slices of 1-MCP pre-treated pears immersed in glyoxylic acid, airtight jar; type: in vivo, pear; details: immersed 12-24 hours, measured after 8 hours
Description: The effect of glyoxylic acid on the restarting of ripening after 1-MCP-mediated arrest was also assayed with fruit that was sliced. Whole unripe pears were pre-treated with 1-MCP according to standard practice. The unripe pre-treated fruit were sliced and subject to glyoxylic acid treatments to assess its ability to induce ripening in the sliced fruit. First, fruit slices were immersed in 0.5 mM and 2.5 mM glyoxylic acid solution for 12-24 hours and placed in an airtight jar. Ethylene levels were measured after 8 hours. […] Slices immersed in the 2.5 mM glyoxylic also produced more (approximately 2-fold more) ethylene than the controls, although the increase in ethylene levels was not as high as for the 0.5 mM treatment.

[9] = system: whole pears; experiment: Firmness of whole pears after 24 h immersion in glyoxylic acid solution (penetrometer); type: in vivo, pear; details: after 6 days
Description: as §1, with “thereafter. In a first assay, whole pears pre-treated with 1-MCP were immersed in 0 mM, 0.1 mM, 0.25 mM, or 0.5 mM glyoxylic acid solution for 24 hours. The fruit was assayed for firmness using a penetrometer six days after the immersion treatment. FIG. 7 graphically illustrates the reduction in firmness (i.e., development of softness) in pear fruit treated with various concentrations of glyoxylic acid. Non-1-MCP treated fruit (light bars) and 1-MCP treated fruit (dark bars) responded differently to glyoxylic acid treatment.” for “thereafter.”

[10] = system: Non-MCP treated D'Anjou pears; experiment: Flesh firmness of non-MCP treated D'Anjou pears after atomized GLA exposure (penetrometer); type: in vivo, pear; details: 3% GLA, various exposure times, 1, 3, 5, 7 days post exposure
Description: Pear fruit: Non-MCP treated D'Anjou pears picked on Oct. 4, 2019 were obtained from Blue Bird packing house (Blue Bird Inc., Wenatchee Washington) and stored at 1° C. until use.
as §3, with “GLA” for “(m/V) glyoxylic acid (GLA)”, “solution” for “solution in deionized water”, “treatment. Pears” for “treatment for 16 hours. Fruits”
as §4

[11] = system: Haas avocado; experiment: Avocado fruit flesh firmness after atomized GLA exposure (penetrometer); type: in vivo; details: for percentage of terminal ripened firmness achieved: 3% GLA 16 hours
Description: as §2, §3
Firmness measurements: Fruit firmness was measured via FTA penetrometer (GUSS Manufacturing, Norfolk, VA) at three equidistant locations around the middle of each fruit. Therefore, one biological replicate yielded three technical replicates. For each penetrometer measurement, approximately 2 cm^2 of fruit epidermal tissue was removed with a fruit peeler. Firmness measurements were taken at the locations on the fruit where epidermal tissue was removed. Firmness measurements were taken from three biological replicates per treatment at 1, 3, 5 and 7 days post treatment (DPT).
Firmness normalization: Firmness measurements were normalized to account for variability in starting fruit flesh firmness. At the start of each experiment, three untreated fruits were selected, and three fruit flesh measurements were taken from each and averaged. Firmness measurements from each exposure time treatment are reported as a percentage of the starting fruit flesh firmness average.

O=CC(=O)O [glyoxylic acid]
internal ethylene evolution ([1]; 0.5% (0.6.75 mM) ambient fogging): effective in inducing the evolution of ethylene
internal ethylene evolution ([1]; 1% (0.135 M) ambient fogging): effective in inducing the evolution of ethylene
ripening response (pigmentation green to red) versus deionized water control [2]: accelerated ripening
ripening response (pigmentation green to red) versus deionized water control ([2]; listed as GLA): accelerated ripening response
fruit firmness ([3]; 8 days): 2 lbf
Brix values (total soluble solids) ([3]; 8 days post fogging): significantly increased brix values
ripening as measured by fruit flesh firmness [4]: trend towards accelerated ripening
time at which ethylene evolution is observed ([5]; 0.25 mM RC-2, pear fruit blocked for ripening by 1-MCP): ≤ 16 h
evolution of ethylene ([5]; 0.25 mM glyoxylic acid (RC-2)): clear and steady increase in the evolution of ethylene
level of ethylene versus control fruit ([5]; 1, 2.5 and 10 mM glyoxylic acid): indistinguishable and very low
maturation in pears after 1-MCP treatment ([5]; as little as 0.25 mM): induces maturation
evolution of ethylene from sliced fruit versus control ([6]; 2.5% (337 mM) solution, sealed atmosphere bag): enhanced the evolution of ethylene; also recorded: significantly increased ethylene production
ethylene evolved versus control fruit ([6]; some of a range of concentrations (0.005%-2.5%)): releases more ethylene than the control fruit
ripening response (change in pigmentation) of rin tomato fruit [7]: change in pigmentation resembling that achieved at breaker stage in wild type tomatoes
ripening response (change in pigmentation) of rin tomato fruit ([7]; listed as GLA): enables ripening of rin mutant fruit
pigment response in untreated rin fruit on the same branches as treated fruit [7]: systemic
pigment response in untreated rin fruit on the same branches as treated fruit ([7]; listed as GLA): Systemic pigmentation response
ethylene generated relative to control slices ([8]; 0.5 mM): 5 fold
ethylene generated relative to control slices ([8]; 2.5 mM): approximately 2 fold
firmness effect in 1-MCP treated fruit ([9]; 0.5 mM immersion solution): especially enhanced over control
firmness of non-1-MCP treated fruit ([9]; 0.5 mM): reduction in firmness is evident
firmness of 1-MCP treated fruit ([9]; all concentrations (0.1, 0.25, 0.5 mM), 24 h immersion, compared to non-1-MCP treated fruit): drop in firmness
ripening as measured by pear fruit flesh firmness [10]: trend towards accelerated ripening
percentage of terminal ripened firmness achieved ([11]; one day post treatment (control 31%)): 81%
percentage of terminal ripened firmness achieved ([11]; three days post treatment (control 96%)): 92%
ripening as measured by fruit flesh firmness versus non-GLA control ([11]; 3% GLA solution, atomized, 16 hours, listed as GLA): significant acceleration of ripening; also recorded: evidence for accelerated ripening

S [RC-1, hydrogen sulfide]
evolution of ethylene ([5]; 0.5 mM H2S): clear and steady increase in the evolution of ethylene
level of respiration (evolved CO2) ([5]; 0.5 mM H2S (RC-1), 5 days monitoring): positive trend
level of respiration (evolved CO2) ([5]; 0.5 mM H2S (RC-1), 5 days monitoring, listed as H2S): generally positive trend
level of ethylene versus control fruit ([5]; 2.5 mM H2S): indistinguishable and very low
level of respiration (evolved CO2) ([5]; 2.5 mM H2S, perhaps a stress response): higher levels of carbon dioxide
time post-treatment at which ethylene evolution is observed ([5]; RC-1, pear fruit blocked for ripening by 1-MCP): 48 h

[Cl-].[Cl-].[Co+2] [CoCl2, reference compound]
visible ripening response ([2]; in vivo): no visible ripening response
